Holding throughout (assay type): cell-based, human
In one assay the test system is β-actin. Nature of the assay: Northern blot, β-actin probe for quantitation of RNA load in HUVECs. The settings on record: 24 hr. On the procedure: (§1) Human umbilical vein endothelial cells (H 930) were generously supplied by Dr. Tom Maciag, American Red Cross (Gaithersburg, Md., USA) and were used between passages 9 and 14 to avoid senescence. HUVECs were grown on fibronectin-coated tissue culture plastic (200 μg/150 mm dish) in complete medium (Medium 199 (M-199) containing 5 U/mL preservative-free heparin, 25.5 μg/mL ECGS, 10% fetal bovine serum and 100 U/mL penicillin, 100 μg/mL streptomycin, and 0.25 μg/mL fungizone).
HUVECs were grown to confluence as described. Fresh complete medium with test compounds was added to confluent cells for an additional 24 hr incubation. bFGF (10 ng/mL), and/or compound 1 (10 μM) or DMSO control (0.1%) were added as indicated below. Total RNA was isolated by the guanidine isothiocyanate/CsCl method. Aliquots of RNA (7.5 μg) were separated on 1% agarose/formaldehyde gels, passively transferred to GeneScreen Plus membrane in 20X SSC, then cross-linked with ultraviolet light. Blots were prewashed for 1 hr at 42° C. in 1M NaCl, 10 mM Tris, 1 mM EDTA, 0.1% SDS and then hybridized overnight at 42° C. with a formamide-containing buffer (hybridization buffer final: 50% formamide, 4X SSC, 10 mM Tris pH 7.5, IX Denhardt solution, 0.2% SDS, 125 μg/ml salmon sperm DNA) with a random-primed 300 bp insert for MMP-2 (gift of Dr. William Stetler-Stevenson, Laboratory of Pathology, NCI). Blots were washed under stringent conditions then exposed to film. After removal of MMP-2 probe, blots were rehybridized with β-actin probe for quantitation of the RNA load. Results were quantitated by densitometric evaluation of the autoradiographs.
Lane 1 corresponds to the mRNA from HUVECs treated with DMSO (control). Lanes 2-4 show the mRNA isolated from HUVECs treated with compound 1 (10 μM) alone, compound 1 (10 μM) and bFGF (10 ng/mL), bFGF (10 ng/mL) alone, respectively.

Another assay concerns HUVECs. Nature of the assay: HUVEC vascular tube formation on Matrigel. The conditions noted are these: 24 hr. On the procedure: as §1
After 12-24 hours, this rearrangement leads to the development of a network of tube-like structures that resemble capillaries. See, Kubota, et al., J. Cell Biol. 107:1589-1598 (1988).
Matrigel is a solution of murine basement membrane enriched for laminin and collagen type IV and has been used previously as a permissive substrate for vessel formation. See, Albini, et al., Int. J. Oncol. 1:723-730 (1992). The effect of compound 1 on in vitro tube formation was tested using this system. Individual wells of 24 well plates were coated with a 300 μL aliquot of concentrated Matrigel solution (10 mg/mL) and allowed to solidify for 1 hr at 37° C. Compound 1 (1.0, 10 or 20 μM) or DMSO control (0.1%) was added to Matrigel and to the culture media. HUVECs (50,000 cells/well) were incubated on the Matrigel in complete medium for 24 hr then evaluated by phase contrast microscopy and photographed.

The next assay relates to bFGF receptor. Nature of the assay: bFGF-induced tyrosine phosphorylation in HUVECs (phosphotyrosine immunoprecipitation and Western analysis). The settings on record: 10 μM. As to the method:
as §1
It exerts its activity through activation of the bFGF receptor kinase with subsequent autophosphorylation of its receptor as well as phosphorylation of other signaling proteins. See, Jaye, et al., Biochim. Biophys. Acta 1135:185-199 (1992). Phosphotyrosine immunoprecipitation and Western analysis were used to investigate the effect of compound 1 on bFGF-mediated tyrosine phosphorylation.
The following day, cells were exposed to bFGF, 10 ng/mL for 15 min at 37° C. Cells were quickly washed with cold DPBS, scraped from the plate and lysed with lysis buffer (50 mM Tris-HCl pH 7.6, 300 mM NaCl, 10 μg/mL aprotinin, 1 mM phenylmethylsulphonylfluoride (PMSF), 400 μM sodium orthovanadate, 400 μM EDTA, 100 mM sodium fluoride, 100 mM sodium pyrophosphate, and 0.5% Triton-X 100) for 1 hr on ice. The lysates were centrifuged at 4° C. at 1200×g for 15 minutes after which the supernatants were saved and protein concentration determined using bicinchoninic assay protein detection method. Aliquots of lysis protein ([…] per sample) were incubated with 10 μg of anti-phosphotyrosine monoclonal antibody, 4G10, pre-conjugated to protein A-sepharose beads for 1 hr at 4° C. The beads were washed three times with buffer containing 0.1% Triton X-100 and then the immunoprecipitated proteins were eluted with 2X Laemmli sample buffer and subjected to 4-12% gradient gel electrophoresis. Proteins were transferred electrically, blocked (7.5% glycine, 5% dry milk, 1% ovalbumin) for 30 min at room temperature, then washed (0.001% ovalbumin, 0.001% dry milk, 0.001% Tween-20 in phosphate-buffered saline (PBS)). […]

For `NC(=O)c1nnn(Cc2cc(Cl)c(C(=O)c3ccc(Cl)cc3)c(Cl)c2)c1N` [Compound 1, 5-amino-1-(4-(4-chlorobenzoyl)-3,5-dichlorobenzyl)1,2,3-triazole-4-carboxamide], the “β-actin (densitometer)” value in the assay with β-actin (Control + Compound 1, 10 μM) is given as 127 Densitometer units; in the assay on β-actin (bFGF 10 ng/mL + Compound 1 10 μM) it was 210 Densitometer units. Further, the “inhibition of tube formation (in words)” value in the assay with HUVECs (20 μM, similar when omitted from the Matrigel) is given as “more striking inhibition of tube formation”. Further, in the assay with HUVECs (compound in Matrigel and media, similar when only in media), the “appearance of multicellular tubes vs DMSO control (in words)” value was “less extensive, thinner, foreshortened, and less cellular”. Further, the “effect on bFGF-stimulated tyrosine phosphorylation (in words)” value in the assay on bFGF receptor (18 hr, bFGF 10 ng/mL for final 15 minutes) is on record as “inhibition of bFGF-stimulated phosphorylation”. For the same compound, the “effect on bFGF-stimulated tyrosine phosphorylation, including autophosphorylation of bFGF receptor (in words)” value in the assay with bFGF receptor (bFGF 10 ng/mL) is listed as “blocked bFGF-stimulated tyrosine phosphorylation”. For the same compound, in the assay with bFGF receptor (no bFGF), the “effect on basal tyrosine phosphorylation (in words)” value is listed as “Neither DMSO control (lane 1) or compound 1 (10 μM, lane 2) altered basal tyrosine phosphorylation”.

These data come from patent US5744492A, “Method for inhibiting angiogenesis” (United States of America, priority 1994, dated 1998).
